Data taken from BindingDB's records for doi:10.1016/s0960-894x(01)00002-6 (Kyushu University, 2001).

The molecules below were run against DNA polymerase I (Escherichia coli) (UniProt P00582) (assay: Compound was evaluated for its inhibitory activity against Klenow enzyme).
Sequence of DNA polymerase I (Escherichia coli) (P00582 whole entry, looked up): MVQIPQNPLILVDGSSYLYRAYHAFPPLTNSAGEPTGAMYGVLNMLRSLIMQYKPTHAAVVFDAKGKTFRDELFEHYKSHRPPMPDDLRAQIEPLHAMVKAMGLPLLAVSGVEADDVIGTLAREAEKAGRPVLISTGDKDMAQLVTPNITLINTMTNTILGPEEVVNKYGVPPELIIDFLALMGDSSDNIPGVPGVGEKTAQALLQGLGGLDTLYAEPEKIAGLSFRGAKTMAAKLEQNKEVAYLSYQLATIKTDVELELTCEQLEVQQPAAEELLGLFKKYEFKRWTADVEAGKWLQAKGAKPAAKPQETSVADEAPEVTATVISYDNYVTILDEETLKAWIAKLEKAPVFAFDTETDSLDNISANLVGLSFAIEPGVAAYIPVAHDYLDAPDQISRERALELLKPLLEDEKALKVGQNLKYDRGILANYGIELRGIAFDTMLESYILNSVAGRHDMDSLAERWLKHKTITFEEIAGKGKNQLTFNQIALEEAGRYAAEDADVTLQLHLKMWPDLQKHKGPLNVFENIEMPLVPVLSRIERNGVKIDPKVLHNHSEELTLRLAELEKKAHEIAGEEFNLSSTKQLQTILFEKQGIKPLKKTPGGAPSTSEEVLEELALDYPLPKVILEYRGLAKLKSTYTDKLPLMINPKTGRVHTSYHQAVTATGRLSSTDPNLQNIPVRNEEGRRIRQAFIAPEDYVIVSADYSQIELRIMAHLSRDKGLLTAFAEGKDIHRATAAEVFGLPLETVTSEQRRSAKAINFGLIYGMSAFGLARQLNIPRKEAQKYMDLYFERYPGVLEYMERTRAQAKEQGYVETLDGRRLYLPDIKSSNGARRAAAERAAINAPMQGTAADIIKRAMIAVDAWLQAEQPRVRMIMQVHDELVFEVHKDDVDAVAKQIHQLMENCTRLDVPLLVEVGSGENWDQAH
An IC50 of 70 µM was found for `O=C(Cc1cn(CCn2ccc3cc(Cl)ccc32)c2ccccc12)NCCCCCCCCCCCCOP(=O)(O)Oc1cccc(Cl)c1` [Phosphoric acid 12-(2-{1-[2-(5-chloro-indol-1-yl)-ethyl]-1H-indol-3-yl}-acetylamino)-dodecyl ester 3-chloro-phenyl ester; compound with triethyl-amine] in this work. An IC50 of 101 µM was found for `O=C(Cc1cn(CCn2ccc3cc(Cl)ccc32)c2ccccc12)NCCCCCCCCCCCCOP(=O)(O)OC1CCCCC1` [Phosphoric acid 12-(2-{1-[2-(5-chloro-indol-1-yl)-ethyl]-1H-indol-3-yl}-acetylamino)-dodecyl ester cyclohexyl ester; compound with triethyl-amine] in this work. An IC50 of 61 µM was found for `O=C(Cc1cn(CCn2ccc3cc(Cl)ccc32)c2ccccc12)NCCCCCCCCCCCCOP(=O)(O)Oc1ccccc1` [Phosphoric acid 12-(2-{1-[2-(5-chloro-indol-1-yl)-ethyl]-1H-indol-3-yl}-acetylamino)-dodecyl ester phenyl ester; compound with triethyl-amine] in this work.
